From a melting point compilation (Tetko et al.; mined from patent text by program, amines drawn as free bases though some values may be those of a salt)

Row | Structure (SMILES) | melting point [°C]
1 | C=CCNc1nc(Cl)nc2c1ncn2CC=C | 110 to 112
2 | Cc1sc(-c2ccccc2)nc1COc1ccc(C#N)cn1 | 124 to 125
3 | CCc1nc2c(cnn2CC)c(NC2CCOCC2)c1CNC(=O)c1cccc(C(=O)NCc2cc(Cl)cc(-c3cccc(C=O)c3)c2)c1 | 123 to 127
4 | CN1c2ccc(Cl)cc2NC(=S)c2cscc21 | 238 to 240
5 | COc1ccc(-c2c(/C=C\C(=O)O)cnn2C)cc1 | 205 to 206
6 | Clc1ccc(C2NN=C(c3cccnc3)S2)cc1 (stereo not drawn) | 108 to 110
7 | CN1CCCCC1CCc1ccccc1NC(=O)c1cccnc1 (stereo not drawn) | 88 to 90
8 | COC(=O)c1ccc(NC(C)=O)c(I)c1 | 140 to 141
9 | COc1ccc(CN(C)CCc2ccc(NC(=O)c3cccc4c(=O)c5cccc(C)c5[nH]c34)cc2)cc1OC | 119
10 | COc1c(N2CC(N)C2)c(F)cc2c(=O)c(C(=O)O)cn(-c3cc(N)c(F)cc3F)c12 | > 290
11 | N=C(Nc1ccc(C(=O)O)cc1)Nc1nc(-c2ccccc2)cs1 | 245 to 247
12 | Cc1cc(SC2=C(O)CC(C3CCCC3)(C3CCCC3)OC2=O)c(C(C)(C)C)cc1CO | 158 to 160
13 | O=C(C1CCc2nc[nH]c2C1)N1CCc2ccccc2C1 (stereo not drawn) | 128 to 130
14 | COc1cc2c(cc1OC(C)=O)C(=O)CCC2 | 118 to 120
15 | CCCCc1nc(CC(NC(C)=O)(C(=O)OCC)C(=O)OCC)c[nH]1 | 80 to 92
16 | CCOC(=O)N(c1ccccc1N=NC(NC(=O)CCl)(C(=O)OCC)C(=O)OCC)c1cccc(C)c1C | 120 to 122
17 | COC(=O)c1cc(CO)cc([N+](=O)[O-])c1 | 76.5 to 77.5
18 | Brc1ccc(N2CCCN(c3ccc(Br)cn3)CC2)nc1 | 178 to 181
19 | Nc1nc(SC2CCCC2)c2ncn(C3C=CC(CO)C3)c2n1 (stereo not drawn) | 167 to 169
20 | CCOc1c([C@@H]2C[C@@H]2/C=C/C(C)=C/C(=O)O)cc(C(C)(C)C)cc1C(C)(C)C (racemic) | 169 to 174
21 | O=C1N(Cc2ccc(Cl)s2)c2cccc(-c3ccoc3)c2C12COc1cc3c(cc12)OCO3 (stereo not drawn) | 166 to 168
22 | COc1c(C)c(C)c2c(c1C)C(c1ccc(CBr)cc1)C(C)(C)O2 (stereo not drawn) | 97 to 98
23 | OCC1(c2ccccc2)COc2ccccc2O1 (stereo not drawn) | 114 to 116
24 | COc1cccc(CNC(=O)c2nc3ccc(-c4nnn[nH]4)cc3c(=O)[nH]2)c1 | 258 to 260
25 | O=S(=O)(c1ccc(O)cc1)c1c(-c2ccccc2)cn2ccccc12 | 234

Row | Structure (SMILES) | melting point [°C]
26 | COc1ccc(-c2nnc(C)nc2-c2ccc(OC)cc2)cc1 | 109 to 113
27 | COc1nn(-c2ccc(CBr)c(Cl)c2)nc1Cl | 141 to 142
28 | COC(=O)c1ccc(-c2nc(-c3ccc(C)cc3)cs2)cc1 | 185 to 187
29 | CC(=O)C1(O)CCC2C3CC(C)C4=CC(=O)CCC4(C)C3(F)CCC21C (stereo not drawn) | 232 to 235
30 | CCC12CCC3C4CCC(=O)C=C4CCC3C1CCC2OC(O)C(Cl)(Cl)Cl (stereo not drawn) | 175 to 176
31 | CN1CCCC(c2nc(-c3ccncc3)c(-c3ccc(F)cc3)[nH]2)C1 (stereo not drawn) | 195 to 197
32 | C[C@]1(COC(=O)N2CCCc3cc(Cl)ccc32)Cn2cc([N+](=O)[O-])nc2O1 | 172 to 174
33 | c1ccc2nc3c(nc2c1)OCC1CCCN31 (single isomer, unassigned; (+)) | 121 to 123
34 | COc1ccc(C(C)C)cc1-c1cc(-c2nnnn2C2CCCN(C(=O)OC(C)(C)C)C2)c(O)cc1O (stereo not drawn) | 227 to 229
35 | CCN1CCN(c2nccc(Oc3ccc(NC(=O)c4cc(F)cc(N5CCCCC5)c4)c4ccccc34)n2)CC1 | 86 to 87
36 | COCNC(=O)SC(C(=O)O)c1ccccc1 (stereo not drawn) | 111 to 112
37 | CC(C)(C)OC(=O)NCCCCCC(=O)O | 39 to 42
38 | CN(SN1CCOCC1)C(=O)Nc1ccc(Cl)c(Cl)c1 | 142
39 | CCC(=O)Nc1cccc(C2(c3cc(C(=O)CC)n(CC)c3)N=C(N)N(C)C2=O)c1 (stereo not drawn) | 120 to 141
40 | NC(=O)c1cccc(-c2nc(-c3ccccc3)c(-c3nc4ccccc4c(=O)n3-c3ccccc3Cl)s2)c1 | 212 to 214
41 | CC(=O)C(=C1NCCCS1)[N+](=O)[O-] | 110 to 113
42 | CC(=O)N[C@@H](C)COc1cnc(-c2nc3ccc(OCC4CC4)cc3o2)c(F)c1 | 158 to 159
43 | Cc1cccc(-c2ccc3c(c2)c(CC(=O)O)cn3Cc2ccc(C(C)(C)C)cc2)c1 | 91 to 92
44 | COc1ccc(CN2C=CC=C3C2=Nc2cc(C)ccc2S(=O)(=O)N3C)cc1 | 135 to 136
45 | N#CC1=C(Nc2ccc(Cl)cc2[N+](=O)[O-])CSC1 | 154 to 155
46 | CC1=C2C3C(C)CC4=CC(=O)CCC4C3CCC2(C)C(O)C1 (stereo not drawn) | 164 to 167
47 | COc1c(Cc2ccccc2)cc(C(=O)O)c2ccccc12 | 146 to 148
48 | CC(=O)Nc1ccc(S(=O)(=O)NC(C)(C)C)cc1 | 200 to 201
49 | O=C(/C=C/c1ccc(Br)cc1)c1c(F)cccc1F | 71
50 | CCCN(CCC)[C@H]1Cc2ccc(OCC)cc2[C@@H]1O | 74 to 75

Row | Structure (SMILES) | melting point [°C]
51 | Cc1cccc(-c2cc(C(F)(F)F)n3cnc(C#N)c3n2)c1 | 202
52 | COCC(=O)Nc1c(C(O)(C(F)(F)F)C(F)(F)F)ccc2ccccc12 | 120 to 121
53 | CCCCCCCCCCCCCCCCCC(=O)Oc1ccc2c(c1)C(=O)c1ccc(OC(=O)CCCCCCCCCCCCCCCCC)cc1C2=O | 129 to 132
54 | C=CCc1c2c(cc3c(=O)cc(C(=O)OCC)oc13)CCCC2 | 98 to 101
55 | COc1cc(C(C)(C)C)c(OC(C)=O)c(C(C)(C)C)c1 | 96.6
56 | CS(=O)(=O)c1ccc(-c2cc(C(=O)c3ccccc3)sc2N2CCOCC2)cc1 | 173
57 | O=C(O)Cc1c(C(=O)c2ncc[nH]2)[nH]c2ccc(Cl)cc12 | 253 to 254
58 | COCCOc1ccc(CCCOc2cc(CCC(=O)O)n(-c3ccccc3)n2)c(Oc2ncc(C(F)(F)F)cc2Cl)c1 | 128 to 129
59 | O=C1Nc2cccc(Cl)c2C1(O)c1cc2c(cc1O)OCO2 (stereo not drawn) | 250 to 253
60 | Cc1nc2ccccc2n1-c1ccccn1 | 121 to 123
61 | CC(=O)Nc1ccc(C(=O)NC(C)(C)C)cc1 | 119 to 121
62 | CC(C)N(Cc1ccc(Cl)c(Cl)c1)S(=O)(=O)c1ccc(Cl)s1 | 66 to 67
63 | Cc1cc(C)c(/C=C2\C(=O)N(CN3CCCC3)c3ccccc32)[nH]1 | 129 to 132
64 | O=C(O)c1csc(Br)n1 | 227 to 229
65 | Cc1cc(-c2[nH]c3ccc(O)cc3c2C)cc(C)c1O | 174 to 176
66 | CSc1ccc(C(=O)Nc2c(Cl)cncc2Cl)cc1OC1CCCC1 | 157 to 159
67 | CCOC(=O)Cc1ccc(CCNS(=O)(=O)c2ccc(Cl)cc2)cc1 | 88 to 90
68 | O=C(c1ccccc1CN1C(=O)C2(COc3cc4c(cc32)CCO4)c2ccccc21)N1CCCCC1 (stereo not drawn) | 168 to 170
69 | Cn1cc(C#N)c(=O)c(-c2cccc(C(F)(F)F)c2)c1 | 228 to 229
70 | Oc1ccccc1-c1ccccc1P(c1cc(C(F)(F)F)cc(C(F)(F)F)c1)c1cc(C(F)(F)F)cc(C(F)(F)F)c1 | 120 to 121
71 | Cc1ccccc1CCNC(=O)c1ccc(F)cc1 | 82 to 83
72 | Cc1cc(CO)cc(Cl)n1 | 112 to 113
73 | Cc1cccc([N+](=O)[O-])c1-c1c(C)cccc1[N+](=O)[O-] | 107 to 108
74 | Cc1cc(CN2CCNC2=C[N+](=O)[O-])on1 | 168 to 170
75 | N#Cc1cnc2ccc(/C=C/CCN3CCOCC3)cc2c1Nc1ccc(Cl)cc1Cl | 115 to 116

Row | Structure (SMILES) | melting point [°C]
76 | N#Cc1c(=O)[nH]c2cc(Cl)c(Cl)cc2[n+]1[O-] | 294 to 296
77 | CN(C)c1ccc2cc(C#N)oc2c1 | 70 to 71
78 | Cc1nn(C)c(C)c1N1CCN(c2c(C)c(C)c3c(c2C)CC(C)(C)O3)CC1 | 162 to 164
79 | CCC1=Cc2cc(OCC(=O)O)c(Cl)c(Cl)c2C1=O | 205 to 207
80 | O=[N+]([O-])c1ccc2ncnc(Nc3cc(Cl)c(Cl)cc3F)c2c1 | 270 to 271
81 | CCCCCCCCCCCCCCCCCCN(CCCCCCCCCCCCCCCCCC)c1ccc([N+](=O)[O-])cc1[N+](=O)[O-] | 55.5 to 57.5
82 | CCOC(=O)c1cnn(-c2ccc(Cl)cc2C(F)(F)F)c1Cl | 67 to 69
83 | CCCCCc1c(C(C)C)nc(C(C)C)c(C(O)CCCC)c1-c1ccc(F)cc1 (stereo not drawn) | 66 to 68
84 | Cc1nc(N2N=C(c3ccc([N+](=O)[O-])cc3)c3cc4c(cc3CC2C)OCO4)cs1 (stereo not drawn) | 178 to 190
85 | O=C(Nc1ccccc1)C1C(=O)Sc2ccccc21 (stereo not drawn) | 140 to 142
86 | CNc1ccc(CN2CCN(C(c3ccccc3)c3ccccc3)CC2)cc1[N+](=O)[O-] | 121
87 | CS(=O)(=O)N1CCC(C(=O)N(CCCN2CCC(Cc3ccc(F)cc3)CC2)c2ccc(Cl)c(Cl)c2)CC1 | 148 to 150
88 | O=C1C(=O)N(C(c2ccccc2)(c2ccccc2)c2ccccc2)CCN1Cc1cc(=O)c(OCc2ccccc2)cn1Cc1ccccc1 | 165 to 168
89 | COC(=O)C1=C(C)NN=C(c2ccccc2)C1c1ccccc1 (stereo not drawn) | 158
90 | Cc1nc(-c2cn(CCC3CC3)nn2)sc1C(=O)NCc1cccnc1 | 124 to 125
91 | CC1(O)CCC2C3CCC45OC4(C)C(=O)C(C#N)CC5(C)C3CCC21C (stereo not drawn) | 166 to 167
92 | Cc1cc(F)ccc1-c1cc(OC2SCC(O)C(O)C2O)ccn1 (stereo not drawn) | 147
93 | COc1cc2c(cc1OC)N(C)C(=O)CN=C2c1cccc([N+](=O)[O-])c1 | 152 to 155
94 | Cc1ccc(C(=O)Nc2c(NC(=O)CN3CCOCC3)ccc3c2C(=O)c2ccccc2C3=O)cc1 | 225 to 226
95 | O=C(O)CCCc1cccc(OCc2cn(-c3ccc(C(F)(F)F)cn3)nc2C2CCCCC2)c1 | 128 to 129
96 | COC(=O)CCc1cc2cc(C(F)(F)F)ccc2n1S(=O)(=O)c1ccc2nc(N)sc2c1 | 135 to 136
97 | Cc1nc2cccc3n(CCCCNS(=O)(=O)CC(F)(F)F)c(=O)c1n23 | 116 to 118
98 | CCCCCCCCCCCCCCCCCCOS(=O)(=O)NC(=O)Nc1c(C(C)C)cccc1C(C)C | 95 to 98
